Assay results from patent US5464834A, “N-substituted N'-heterobicyclic piperazines having pharmaceutical activity” (Adir et Compagnie, priority 1992, dated 1995).

Columns and labels:
Type in all cases: in vivo, rat (male Wistar)
Parameters in all cases: from tissue; host or cells: whole living male Wistar rats (endogenous receptor)
[1] = target: T1, 5HT1A receptors (Rattus norvegicus, UniProt P19327); test: Spontaneous tail flick (STF) test, agonist (alone) and antagonist (vs 8-OH-DPAT)
T1 sequence (P19327 1-422): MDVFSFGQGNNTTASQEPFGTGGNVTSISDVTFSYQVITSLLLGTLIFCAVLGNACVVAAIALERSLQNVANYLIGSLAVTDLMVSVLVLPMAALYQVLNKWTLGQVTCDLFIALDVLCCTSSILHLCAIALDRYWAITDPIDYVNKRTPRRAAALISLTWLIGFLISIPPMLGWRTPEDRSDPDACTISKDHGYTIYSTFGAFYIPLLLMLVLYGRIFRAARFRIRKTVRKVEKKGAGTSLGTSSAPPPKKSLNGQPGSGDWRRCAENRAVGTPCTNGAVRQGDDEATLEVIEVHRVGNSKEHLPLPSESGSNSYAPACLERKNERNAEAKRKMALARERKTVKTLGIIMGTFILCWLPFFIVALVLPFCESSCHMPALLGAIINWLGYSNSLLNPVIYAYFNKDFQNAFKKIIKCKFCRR
Experimental: (§1) The tests were carried out using male Wistar rats weighing 200 to 220 g having free access to their food and to their drinking water in standard cages.
(§2) The animals are isolated individually for the tests for hypothermia, corticosterone secretion and flat body posture, or combined in groups of three for the tailflick test.
(§3) The compounds to be studied were administered by the subcutaneous route (s.c.) 60 minutes before the beginning of the test, that is to say 30 minutes before the solvent (agonist responses) or the 8-OH-DPAT (antagonist responses).
(§4) In all of the tests the solvent is used in parallel as a control. The animals were left to rest in their cage during the period between the injections and the evaluation. For the agonist studies, the solvent was administered at 1 ml/kg s.c. 30 minutes before the beginning of the test. For the antagonist studies, doses of 8-OH-DPAT that induce sub-maximal responses were chosen, that is doses of 0.63, 0.16, 0.16 and 0.16 mg/kg s.c. for, respectively, the tail flick test, flat body posture test, corticosterone secretion test and hypothermia test.
The tail flicks were determined on the animals in horizontal opaque plastics cylinders with the tail of the animals hanging freely on the edge of the laboratory work bench. After allowing 5 minutes for adaptation, the number of movements made in 5 minutes was recorded. An STF is defined as being an elevation of the tail to a level higher than that of the axis of the body [Millan M. J. et al., J. Pharmacol. Exp. Ther., 256, 973-982 (1990)].
(§5) In general, after variance analysis, the results are subjected to the Dunett test. The results are taken as significant if p <0.05.
(§6) The doses of the compounds tested are all expressed in base terms. Unless specified otherwise, all of the compounds were dissolved in sterile water (to which if necessary a few drops of lactic acid were added) and administered at a volume of 1 ml/kg s.c.

[2] = target: T1, 5HT1A receptors; test: Corticosterone secretion (CS), agonist (alone) and antagonist (vs 8-OH-DPAT)
Experimental: as §1, §2, §3, §4
The same animals were used to evaluate the influence of the compounds studied on FBP and on the determination of the plasma concentration of CS. All of the tests were carried out in the morning between 10.30 and 12.300 that is to say when the circadian levels of CS are lowest.
The presence of FBP is defined by a characteristic posture of the animal. That posture is in the ventral decubitus position with the posterior limbs clearly extended. 5 minutes after the observation of FBP, the animals are decapitated and the blood from the trunk is collected in cooled tubes containing 50 μl of a 10% EDTA solution. After centrifugation at 4000 revs/min, the plasma is removed and stored at -30° C. until determination.
The CS was determined by a radio-competitive determination for a plasma protein that binds the CS: transcortine. The latter is obtained from a monkey serum. The separation of the CS-transcortine complexes from the free CS was carried out by means of a solution of dextran and active carbon. The detection limit was 50 pg/tube. The intra- and inter-experiment variations in determination were 5 and 15% respectively [cf Rivet J. M. et al, Eur. J. Pharmacol., 183,634-635 (1990)].
The CS base rates in the plasma never being zero, the following formula was used to calculated the percentage inhibition of plasma CS induced by 8-OH-DPAT: [formula]
as §5, §6

[3] = target: T1, 5HT1A receptors; test: Body temperature / hypothermia, agonist (alone) and antagonist (vs 8-OH-DPAT)
Experimental: as §1, §2, §3, §4
The rats are immobilised and a lubricated digital thermometer (Termistroprobe of Testotherm, Basle, Switzerland) is inserted into the rectum to a depth of 5 cm. 30 seconds after insertion, the temperature is read on a digital scale. The percentage inhibition is calculated using the formula given above.
as §5, §6

[4] = agonist test, compound alone s.c., minimum effective dose vs control

Q: How did the “STFs MED alone” value [1, 4] turn out when `c1cc2c(c(N3CCN(CCCc4ccsc4)CC3)c1)OCCO2` [Example 1, 4-(Benzodioxan-5-yl)-1-[3-(thiophen-3-yl)propyl]piperazine] was run?
A: Its value is greater than 10.0 mg/kg.

Q: What about the ED50 ([1]; rat, sc, antagonist test, s.c., vs 8-OH-DPAT 0.63 mg/kg s.c., read-out: STFs ID50 (95% CL) + DPAT) of the same compound?
A: The ED50 was 0.12 mg/kg.

Q: What about the “% MPA (% maximum possible antagonism), STFs” value ([1]; vs 8-OH-DPAT 0.63 mg/kg s.c.) of the same compound?
A: The value was 92%.

Q: And the “CS secretion MED alone” value [2, 4]?
A: Its value is 10.0 mg/kg.

Q: What about the ED50 ([2]; rat, sc, antagonist test, s.c., vs 8-OH-DPAT 0.16 mg/kg s.c., read-out: CS secretion ID50 (95% CL) + DPAT) of the same compound?
A: Its ED50 is 0.43 mg/kg.

Q: What about the “% MPA (% maximum possible antagonism), CS secretion” value ([2]; vs 8-OH-DPAT 0.16 mg/kg s.c.) of the same compound?
A: Its value is 100%.

Q: And the “HYPOTHERMIA MED alone” value [3, 4]?
A: Its value is 10.0 mg/kg.

Q: And the ED50 ([3]; rat, sc, antagonist test, s.c., vs 8-OH-DPAT 0.16 mg/kg s.c., read-out: HYPOTHERMIA ID50 (95% CL) + DPAT)?
A: Its ED50 is 0.16 mg/kg.

Q: And the “% MPA (% maximum possible antagonism), HYPOTHERMIA” value ([3]; vs 8-OH-DPAT 0.16 mg/kg s.c.)?
A: Its value is 98%.
